Laboratory results reported in EP3959200B1, “NEW TRIAZOLE AND TRIAZOLOTHIADIAZINE DERIVATIVES EXERTING CYTOTOXIC AND APOPTOTIC EFFECTS ON A549 CELLS THROUGH AKT INHIBITION” (Anadolu Universitesi, priority 2020, dated 2022).
In brackets after ≈: the same amount, converted by molar mass.

Key:
Akt = Akt activity assay (Akt colorimetric in cell ELISA); type: cell-based, human; settings: for Inhibition % / IC50 value (Akt inhibitory effects): 24 hours; for Akt inhibitory effects: result in words
Procedure: Briefly, the media was removed from the wells and 100 µL of 4% formaldehyde was added. The plate was incubated for 15 minutes in a fume hood. Formaldehyde was removed and the plate was washed twice with 1X […] solution (TBS) to 100 µL/well. 1X TBS was removed and 100 µL of 1X permeabilization buffer was added to each well and left at room temperature for 15 minutes. After removing the 1X permeabilization buffer, the wells were washed once with 100 µL of 1X TBS. 1X TBS was removed and 100 µL of the quenching solution was added to the wells and left at room temperature for 20 minutes. Then, this solution was removed. The plate was washed once with 1X TBS, 100 µL of blocking buffer was added to the wells and left at room temperature for 30 minutes. At the end of this period, the blocking buffer was removed and 50 µL of primary antibody was added to the wells. The plate was closed with a sealer and incubated overnight at 4°C. The primary antibody was removed and plate wells were washed three times with 100 µL of wash buffer. After removing the wash buffer, 100 µL of diluted horseradish peroxidase (HRP) conjugate was added to the wells. It was incubated for 30 minutes at room temperature. After removing this conjugate, 100 µL of 3,3',5,5'-tetramethylbenzidine (TMB) stop solution was added and absorbance was measured at 450 nm for 30 minutes. The experiment was carried out in triplicate. The values of the blank wells were subtracted from the values of the untreated control and treated cells. The Akt activity% was determined as the relative absorbance of treated versus untreated control cells.

K562 cell line = settings: cited from earlier work
[1] = tested on: lung cancer (H-157) cell line; settings: cited from earlier work
[2] = tested on: A549 human lung adenocarcinoma cells; assay: MTT cytotoxicity assay; type: cell-based; settings: for IC50: Homo sapiens, A549, read-out: IC50 values A549 cell line; for SI values: SI= IC50 for NIH/3T3 cell line / IC50 for A549 cell line
Procedure: (§1) In order to be used from this stock, the concentrations ranging from 0.12 to 500 µg/mL (with the highest DMSO ratio of 0.1%) were prepared.
A549 human lung adenocarcinoma cells (ATCC® CCL-185™) were grown in RPMI 1640 medium supplemented with 10% fetal bovine serum, 1% penicillin/streptomycin, in an incubator with carbon dioxide, in a culture medium at 37°C at 95% relative humidity.
(§2) MTT protocol was applied to determine cell viability. […] At the end of the incubation period, 20 µL of MTT dye (5 mg/mL) was added into each well, and the cells were incubated for an additional 4 hours at 37°C. After this process, MTT dye was removed from the cells, 200 µL of DMSO was added to each well and left to incubate for 10 minutes. Color change was detected at 540 nm in the ELx808-IU Bio-Tek plate reader. Inhibition% values were determined for each concentration of compounds. Inhibitory concentration 50 (IC50) values of the compounds were calculated by drawing a dose-response curve with their concentrations against these values. All experiments were carried out in triplicate. The results were given as mean±standard deviation. Inhibition% = 100−[(ODtest compound−ODblank/ODsolvent control−ODblank)×100] [formula]
Selective index (SI) values were determined using the following formula. SI […] IC50 for NIH/3T3 cell line/IC50 for A549 cell line [formula]

A549 cells = assay: FITC Annexin V/PI apoptosis detection by flow cytometry; type: cell-based, human; settings: for Early apoptotic cells % / Late apoptotic cells % / Necrosis % / apoptotic activity / Viable cells%: at IC50 concentrations; for apoptotic activity: early plus late apoptotic cells; for apoptosis induction: flow cytometry, result in words
Procedure: The cells incubated with the compounds were centrifuged at 400 × g for 5 minutes in labeled tubes and washed twice with 1xPBS. Then, the cells were suspended in 1×Annexin-V binding solution at 1×10^6 cells/mL and 100 µL of this cell solution was taken and transferred to tubes. The cells were treated with 5 µL Annexin V FITC and 5 µL of propidium iodide (PI) dyes. Then, the cells were kept at room temperature in the dark for 15 minutes to allow the dye to bind. 400 µL of 1×Annexin-V binding cell solution was transferred to flow cytometry tubes and the amount of early and late apoptotic cells was determined relative to the positive control using the BD FACSAria flow cytometer FACSDiva version 6.1.1 software.

[3] = tested on: breast adenocarcinoma (MCF-7); settings: cited from earlier work
[4] = tested on: ovarian carcinoma (SKOV3); settings: cited from earlier work
[5] = tested on: human lung adenocarcinoma (A549); settings: cited from earlier work
[6] = tested on: NIH/3T3 mouse embryonic fibroblast cells; assay: MTT cytotoxicity assay; type: cell-based; settings: Mus musculus, NIH3T3, 24 hours, read-out: IC50 values NIH/3T3 cell line
Procedure: as §1
NIH/3T3 mouse embryonic fibroblast cells (ATCC® CRL-1658™) were grown in DMEM medium supplemented with 10% fetal bovine serum, 1% penicillin/streptomycin, in an incubator with carbon dioxide, in a culture medium at 37°C at 95% relative humidity.
as §2

[7] = tested on: kidney cancer (OU-31) cell line; set-up: concentration or dose not given beside the values; settings: cited from earlier work
[8] = tested on: kidney fibroblast (BHK-21) cells; settings: cited from earlier work
[9] = tested on: human epithelial cervical carcinoma (HeLa) cells; settings: MTT; cited from earlier work
colon carcinoma (HCT116) = settings: HCT116, MTT; read-out: LC50 (the source's name); cited from earlier work
[10] = tested on: breast adenocarcinoma (MCF-7); settings: MCF-7, MTT; read-out: LC50 (the source's name); cited from earlier work

N.N.[Cl][Pt][Cl] [Cisplatin, reference compound]
Inhibition % (Akt; 5.75 µg/mL): 40.70±1.62%
Inhibition % (Akt; 11.50 µg/mL): 97.89±0.86%
IC50 value (Akt inhibitory effects) (Akt): 7.00 ± 0.50 µg/mL
IC50 (K562 cell line): 5.45 ± 0.18 µM
IC50 [1]: 1.31 ± 0.03 µM
IC50 values A549 cell line ([2]; MTT, 24 hours): 11.50 ± 0.71 µg/mL
Early apoptotic cells % (A549 cells): 1.8%
Late apoptotic cells % (A549 cells): 5.8%
Necrosis % (A549 cells): 7.0%
apoptotic activity (A549 cells): 7.6%

COc1cc(-c2nnc3n2N=C(c2ccc(C)cc2)CS3)cc(OC)c1OC [6-(p-tolyl)-3-(3,4,5-trimethoxyphenyl)-7H-[1,2,4]triazolo[3,4-b][1,3,4]thiadiazine]
IC50 [3]: 2.75 ± 0.05 µM
IC50 [4]: 3.43 ± 0.33 µM
IC50 [5]: 0.6 ± 0.02 µM

Fc1ccccc1NCn1nc(C23CC4CC(CC(C4)C2)C3)[nH]c1=S [5-(adamantan-1-yl)-2-[((2-fluorophenyl)amino)methyl]-2,4-dihydro-3H-1,2,4-triazole-3-thione]
IC50 (K562 cell line): 27.7 ± 2.46 µM

S=c1[nH]c(C23CC4CC(CC(C4)C2)C3)nn1CNc1ccccc1Cl [5-(adamantan-1-yl)-2-[((2-chlorophenyl)amino)methyl]-2,4-dihydro-3H-1,2,4-triazole-3-thione]
IC50 (K562 cell line): 27.1 ± 5.35 µM

Fc1ccc(C2=Nn3c(CCc4cccnc4)nnc3SC2)cc1 [Compound 2c, 6-(4-fluorophenyl)-3-(2-(pyridine-3-yl)ethyl)-7H-[1,2,4]triazolo[3,4-b][1,3,4]thiadiazine]
Inhibition % (Akt; 2.95 µg/mL): 54.17±26.41%
Inhibition % (Akt; 5.92 µg/mL): 73.98±8.55%
Inhibition % (Akt; 11.83 µg/mL): 82.60±2.88%
IC50 value (Akt inhibitory effects) (Akt): 2.95 ± 0.05 µg/mL (≈ 8.69 µM)
IC50 ([2]; MTT, 24 hours): 11.8 ± 2.25 µg/mL (≈ 34.9 µM)
SI values [2]: >42.27
IC50 [6]: > 500 µg/mL
Early apoptotic cells % (A549 cells): 1.8%
Late apoptotic cells % (A549 cells): 6.0%
Necrosis % (A549 cells): 4.6%
Viable cells% (A549 cells): 87.6%
apoptotic activity (A549 cells): 7.8%
apoptosis induction (A549 cells): induce apoptosis

Clc1ccc(C2=Nn3c(CCc4cccnc4)nnc3SC2)cc1 [Compound 2d, 6-(4-chlorophenyl)-3-(2-(pyridine-3-yl)ethyl)-7H-[1,2,4]triazolo[3,4-b][1,3,4]thiadiazine]
Inhibition % (Akt; 3.94 µg/mL): 80.33±19.71%
Inhibition % (Akt; 7.88 µg/mL): 99.07±1.86%
Inhibition % (Akt; 15.75 µg/mL): 90.41±7.17%
IC50 value (Akt inhibitory effects) (Akt): 0.80 ± 0.10 µg/mL (≈ 2.25 µM)
IC50 ([2]; MTT, 24 hours): 15.8 ± 0.35 µg/mL (≈ 44.3 µM)
SI values [2]: >31.75
IC50 [6]: > 500 µg/mL
Early apoptotic cells % (A549 cells): 2.4%
Late apoptotic cells % (A549 cells): 3.8%
Necrosis % (A549 cells): 1.3%
Viable cells% (A549 cells): 92.5%
apoptosis induction (A549 cells): induce apoptosis

O=C(CSc1nnc2n1N=C(c1ccc(F)cc1)CS2)c1ccc(F)cc1 [1-(4-fluorophenyl)-2-((6-(4-fluorophenyl)-7H-[1,2,4]triazolo[3,4-b][1,3,4]thiadiazine-3-yl)thio)ethanone]
growth [7]: 47.42%
inhibition [7]: 52.58%

COc1cc([C@@H]2c3cc4c(cc3[C@@H](O[C@@H]3O[C@@H]5CO[C@@H](C)O[C@H]5[C@H](O)[C@H]3O)[C@H]3COC(=O)[C@H]23)OCO4)cc(OC)c1O [etoposide]
IC50 [3]: 1.89 ± 0.16 µM
IC50 [4]: 2.3 ± 0.12 µM
IC50 [5]: 2.99 ± 0.22 µM

Cc1ccc(C2=Nn3c(nnc3-c3ccncc3)SC2)cc1 [3-(pyridine-4-yl)-6-(p-tolyl)-7H-[1,2,4]triazolo[3,4-b][1,3,4]thiadiazine]
inhibition [8]: 72.6%

CS(=O)(=O)c1ccc(Cc2n[nH]c(=S)n2N=Cc2c(F)cccc2Cl)cc1 [4-{ [(2-chloro-6-fluorophenyl)methylene]amino}-5-[4-(methylsulfonyl)benzyl]-2,4-dihydro-3H-1,2,4-triazole-3-thione]
EC50 [9]: 25 µM

Nn1c(CCc2cccnc2)nnc1SCC(=O)Nc1nccs1 [Compound 3a, 2-((4-Amino-5-(2-(pyridine-3-yl)ethyl)-4H-1,2,4-triazole-3-yl)thio)-N-(thiazole-2-yl)acetamide]
Inhibition % (Akt; 0.48 µg/mL): 54.76±5.33%
Akt inhibitory effects (Akt): did not show significant Akt inhibitory effects
IC50 ([2]; MTT, 24 hours): 0.48 ± 0.04 µg/mL (≈ 1.33 µM)
SI values [2]: 430.54
IC50 [6]: 207 ± 11.6 µg/mL (≈ 572 µM)
Early apoptotic cells % (A549 cells): 0.4%
Late apoptotic cells % (A549 cells): 3.1%
Necrosis % (A549 cells): 5.6%
Viable cells% (A549 cells): 91.0%

S=C(Nc1ccc(Oc2ccccc2)cc1)Nc1nc(-c2nnc(S)n2-c2ccc(Oc3ccccc3)cc2)cs1 [1-[4-(5-Mercapto-4-(4-phenoxyphenyl-4H-1,2,4-triazole-3-yl)thiazole-2-yl]-3-(4-phenoxyphenyl)thiourea]
CC50 (colon carcinoma (HCT116)): 23.5 µM
CC50 [10]: 17.4 µM

O=[N+]([O-])c1ccc(C2=Nn3c(CCc4cccnc4)nnc3SC2)cc1 [Compound 2b, G-(4-Nitrophenyl)-3-(2-(pyridine-3-yl)ethyl)-7H-[1,2,4]triazolo[3,4-b] [1,3,4]thiadiazine]
Inhibition % (Akt; 4.07 µg/mL): 34.75±2.25%
Inhibition % (Akt; 8.13 µg/mL): 33.16±14.16%
Akt inhibitory effects (Akt): did not show significant Akt inhibitory effects
IC50 ([2]; MTT, 24 hours): 8.13 ± 0.81 µg/mL (≈ 22.2 µM)
SI values [2]: >61.50
IC50 [6]: > 500 µg/mL
Early apoptotic cells % (A549 cells): 2.4%
Late apoptotic cells % (A549 cells): 2.4%
Necrosis % (A549 cells): 2.5%
Viable cells% (A549 cells): 94.6%

O=c1oc2ccccc2cc1-c1nnc2n1N=C(c1ccc(-c3ccccc3)cc1)CS2 [3-(6-(Biphenyl-4-yl)-7H-[1,2,4]triazolo[3,4-b][1,3,4]-thiadiazine-3-yl)-2H-chromen-2-one]
IC50 [1]: 1.01 ± 0.12 µM

Cc1ccccc1NCn1nc(C23CC4CC(CC(C4)C2)C3)[nH]c1=S [5-(adamantan-1-yl)-2-[(o-tolylamino)methyl]-2,4-dihydro-3H-1,2,4-triazole-3-thione]
IC50 (K562 cell line): 25.4 ± 0.89 µM

COc1cccc(C2=Nn3c(nnc3-c3ccncc3)SC2)c1 [6-(3-methoxyphenyl)-3-(pyridine-4-yl)-7H-[1,2,4]triazolo[3,4-b][1,3,4]thiadiazine]
inhibition [8]: 73.3%

O=C(CSc1nnc2n1N=C(c1ccc(Br)cc1)CS2)c1ccc(Br)cc1 [1-(4-bromophenyl)-2-((6-(4-bromophenyl)-7H-[1,2,4]triazolo[3,4-b][1,3,4]thiadiazine-3-yl)thio)ethanone]
growth [7]: 46.76%
inhibition [7]: 53.24%
